For 16 compounds, IC50 results are on record in patent publication US11555042B2, “Macrocyclic compounds as TRK kinases inhibitors” (FOCHON BIOSCIENCES, LTD., priority 2018, dated 2023).

Holding throughout (format): cell-based
In experiment [1] the target is T1, ETV6-TRKC-G623R (Homo sapiens, UniProt Q16288, G623R).
T1 construct: fused on or other part: P41212 (Transcription factor ETV6)
Put plainly: Engineered Ba/F3 cell proliferation inhibition (MTS), ETV6-TRKC-G623R. Particulars: 72 h. The gist of the method:
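Ba/F3 cells stably expressing the TRK fusion, grown with puromycin, were plated 4 h then treated 72 h at 37 °C with compound 1.5–10000 nM final. Proliferation measured by MTS (2 h), absorbance at 490 nm with 650 nm reference; IC50 derived by curve fit.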

Experiment [2] deals with T2, TPM3-TRKA (Homo sapiens, UniProt P04629).
T2 construct: TPM3 (tropomyosin alpha-3, P06753) fusion partner; expressed in transfected cells; host or cells: Ba/F3; the other entry of the earlier key: TPM3 (P06753, Tropomyosin alpha-3 chain)
T2 sequence (P04629 510-796 limits assumed): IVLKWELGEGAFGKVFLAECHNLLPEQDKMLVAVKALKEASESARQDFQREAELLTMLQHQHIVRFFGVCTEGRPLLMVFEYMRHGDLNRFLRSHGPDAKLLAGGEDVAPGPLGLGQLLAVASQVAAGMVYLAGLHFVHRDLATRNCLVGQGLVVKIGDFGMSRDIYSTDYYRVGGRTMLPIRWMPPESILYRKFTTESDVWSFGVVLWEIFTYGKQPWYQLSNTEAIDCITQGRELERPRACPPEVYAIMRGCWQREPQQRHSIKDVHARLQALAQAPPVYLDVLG
Put plainly: Engineered Ba/F3 cell proliferation inhibition (MTS), TPM3-TRKA. Particulars: 72 h. The text has this:
(§1) MTS testing kit was purchased from Promega (Madison, Wis., USA). The RPMI-1640, Fetal bovine serum and Penicillin-Streptomycin were purchased from Gibco (San Francisco, Calif., USA). Dimethyl sulfoxide (DMSO) and Puromycin were purchased from Sigma (St. Louis., Mo., USA). Mouse interleukin-3 (IL-3) was purchased from Cell signaling Technology (Boston, Mass., USA).
(§2) To investigate whether a compound is able to inhibit the activity of TRK fusion mutation in cells, a mechanism-based assay using engineered Ba/F3 cell lines stably overexpressing oncogenic rearrangement or gene mutation of TRK (TPM3-TRKA, TPM3-TRKA-G595R, AFAP1-TRKB, ETV6-TRKC and ETV6-TRKC-G623R) were developed. In this assay, inhibition of TRK fusion mutation was detected by the cell proliferation inhibition of engineered Ba/F3 cells. Engineered Ba/F3 cells were cultured in culture flasks to 40-80% confluence in RPMI-1640 supplemented with 10% fetal bovine serum, 2 ug/mL puromycin. Cells were collected and plated onto 96-well plates at desired cell density (Ba/F3-TPM3-TRKA: 3×10^4/mL, Ba/F3-TPM3-TRKA-G595R: 1×10^5/mL, Ba/F3-AFAP1-TRKB: 1×10^5/mL, Ba/F3-ETV6-TRKC: 3×10^4/mL, Ba/F3-ETV6-TRKC-G623R: 3×10^4/mL). Plates were incubated at 37° C., with 5% CO2 for 4 h. Compounds were then added to the plates with the final compound concentrations of 10000, 3333, 1111, […], 123, 41.2, 13.7, 4.6 and 1.5 nM. Plates were incubated at 37° C., with 5% CO2 for 72 h. A mixture of 20 μl MTS/100 μl medium were added to each well and the plates were incubated at 37° C., with 5% CO2 for exactly 2 h. The reaction was stopped by adding 25 μl of 10% SDS per well. The absorbance was measured at 490 nm and 650 nm (reference wavelength). IC50 was calculated using GraphPad Prism 5.0 software.

Experiment [3] addresses T3, TPM3-TRKA-G595R (Homo sapiens, UniProt P04629, G595R).
T3 construct: TPM3 (tropomyosin alpha-3, P06753) fusion partner; expressed in transfected cells; host or cells: Ba/F3; the other entry of the earlier key: TPM3 (P06753, Tropomyosin alpha-3 chain)
Put plainly: Engineered Ba/F3 cell proliferation inhibition (MTS), TPM3-TRKA-G595R. Particulars: 72 h.
Text: as §1, §2

Experiment [4] deals with KM12 cells. The experiment can be described thus: KM12 cells proliferation inhibition (MTS), mechanism-based assay for TRK. Particulars: Homo sapiens, KM12, 72 h. The gist of the method:
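KM12 cells (1000 cells/well, RPMI-1640 plus 10% FBS) were treated with compounds at 1.5–10000 nM final for 72 h at 37 °C. Viability was measured by MTS for 2 h, stopped with SDS, with absorbance read at 490 nm (650 nm reference). IC50 was calculated from the readings.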

Experiment [5] concerns the target T4, ETV6-TRKC (Homo sapiens, UniProt Q16288).
T4 construct: fused on or other part: P41212 (Transcription factor ETV6)
The experiment can be described thus: Engineered Ba/F3 cell proliferation inhibition (MTS), ETV6-TRKC. Particulars: 72 h.
Text: as §1, §2

T4 sequence (Q16288 whole entry, the tested form may be a part): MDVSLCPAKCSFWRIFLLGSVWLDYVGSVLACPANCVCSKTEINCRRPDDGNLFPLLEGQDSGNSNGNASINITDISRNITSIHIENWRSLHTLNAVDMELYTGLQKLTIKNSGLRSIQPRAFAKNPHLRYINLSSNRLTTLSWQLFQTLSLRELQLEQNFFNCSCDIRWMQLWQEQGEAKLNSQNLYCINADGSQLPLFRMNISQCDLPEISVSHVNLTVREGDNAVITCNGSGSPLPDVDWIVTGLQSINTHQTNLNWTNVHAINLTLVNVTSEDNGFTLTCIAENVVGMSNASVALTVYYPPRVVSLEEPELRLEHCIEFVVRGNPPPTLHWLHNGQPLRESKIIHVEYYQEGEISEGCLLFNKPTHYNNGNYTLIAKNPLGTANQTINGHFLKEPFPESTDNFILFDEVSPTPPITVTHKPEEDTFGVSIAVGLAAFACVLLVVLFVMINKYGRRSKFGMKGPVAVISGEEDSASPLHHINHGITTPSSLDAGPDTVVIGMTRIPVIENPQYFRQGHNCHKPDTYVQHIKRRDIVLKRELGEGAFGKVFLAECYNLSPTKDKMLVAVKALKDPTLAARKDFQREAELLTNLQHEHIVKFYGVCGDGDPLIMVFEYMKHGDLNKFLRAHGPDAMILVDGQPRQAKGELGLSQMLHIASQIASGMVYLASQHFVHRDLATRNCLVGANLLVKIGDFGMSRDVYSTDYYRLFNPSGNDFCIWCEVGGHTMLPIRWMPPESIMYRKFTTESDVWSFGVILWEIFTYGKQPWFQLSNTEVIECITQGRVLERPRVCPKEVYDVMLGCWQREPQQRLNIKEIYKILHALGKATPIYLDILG
T1 sequence (Q16288 whole entry G623R, the tested form may be a part): as the sequence (Q16288 whole entry, the tested form may be a part) above, with G623R counted along it
T3 sequence (P04629 510-796 G595R limits assumed): as the sequence (P04629 510-796 limits assumed) above, with G86R counted along it

`C[C@@H]1COc2ncc(F)cc2[C@@]23C[C@@H]2CCN3c2ccc3ncc(n3n2)C(=O)N1` [Example 18]: the IC50 amounted to 2 nM in experiment [1]; 1 nM in experiment [2]; 1 nM in experiment [3]; 1 nM in experiment [4]; 1 nM in experiment [5].
Take `CN1c2ccn3ncc(c3n2)C(=O)NC2(CC2)COc2ncc(F)cc2C12CC2` [Example 17, (3′E,4′E)-5′-fluoro-2′-methyldispiro[cyclopropane-1,3′-5-oxa-2,8-diaza-1(5,3)-pyrazolo[1,5-a]pyrimidina-4(3,2)-pyridinacyclononaphane-7′,1″-cyclopropan]-9′-one]: the IC50 was 1 nM in experiment [1], 1 nM in experiment [2], 5 nM in experiment [3] and 1 nM in experiment [4].
`C[C@@H]1CCc2ccc(F)cc2[C@@]23C[C@@H]2CCN3c2ccc3ncc(n3n2)C(=O)N1` [Example 37, (2^1R,2^5S,6R,E)-3^5-fluoro-6-methyl-2^2,7-diaza-1(6,3)-imidazo[1,2-b]pyridazina-2(2,1)-bicyclo[3.1.0]hexana-3(1,2)-benzena-cyclooctaphan-8-one]: the IC50 in experiment [1] is 8 nM; in experiment [2] it was 1 nM; in experiment [3] it was 10 nM; in experiment [4] it was 9 nM; in experiment [5], 3 nM.
For `C[C@@H]1CCc2ncc(F)cc2[C@@]23C[C@@H]2CCN3c2ccc3ncc(n3n2)C(=O)N1` [Example 29, (2^1R,2^5S,6R,E)-3^5-fluoro-6-methyl-2^2,7-diaza-1(6,3)-imidazo[1,2-b]pyridazina-3(3,2)-pyridina-2(2,1)-bicyclo[3.1.0]hexanacyclooctaphan-8-one], the half-inhibitory concentration (IC50) in experiment [1], in experiment [2], in experiment [3], in experiment [4] and in experiment [5] was 1 nM in each case.
In the case of `O=C1NC2(CC2)COc2ncc(F)cc2C2(CC2)Nc2ccn3ncc1c3n2` [Example 41, (3′E,4′E)-5′-fluorodispiro[cyclopropane-1,3′-5-oxa-2,8-diaza-1(5,3)-pyrazolo[1,5-a]pyrimidina-4(3,2)-pyridina-cyclononaphane-7′,1″-cyclopropan]-9′-one], the IC50 came out at 26 nM in experiment [1], 1 nM in experiment [2], 30 nM in experiment [3] and 1 nM in experiment [4].
In the case of `CCN1c2ccn3ncc(c3n2)C(=O)NCCOc2ncc(F)cc2C12CC2` [Example 66, (3′E,4′E)-2′-ethyl-5′-fluorospiro-[cyclopropane-1,3′-5-oxa-2,8-diaza-1(5,3)-pyrazolo[1,5-a]pyrimidina-4(3,2)-pyridinacyclononaphan]-9′-one], the results for the IC50 in experiment [2], in experiment [4] and in experiment [5] were 60 nM, 34 nM and 15 nM, respectively.
For the compound `C[C@@H]1CCc2ncc(F)cc2[C@@]23C[C@@H]2CCN3c2ccn3ncc(c3n2)C(=O)N1` [Example 20, (1^3E,1^4E,2^1R,2^5S,6R)-3^5-fluoro-6-methyl-2^2,7-diaza-1(5,3)-pyrazolo[1,5-a]pyrimidina-3(3,2)-pyridina-2(2,1)-bicyclo[3.1.0]hexanacyclooctaphan-8-one], the concentration for half-maximal inhibition (IC50) in experiment [1], in experiment [2], in experiment [3], in experiment [4] and in experiment [5] was 1 nM throughout.
As for `C[C@H]1CNC(=O)c2cnn3ccc(nc23)N(C)C2(CC2)c2cc(F)cnc2O1` [Example 45, (S,3′E,4′E)-5′-fluoro-2′,6′-dimethylspiro-[cyclopropane-1,3′-5-oxa-2,8-diaza-1(5,3)-pyrazolo[1,5-a]pyrimidina-4(3,2)-pyridina-cyclononaphan]-9′-one], the IC50 was found to be 15 nM in experiment [1]; 3 nM in experiment [2]; 25 nM in experiment [3]; 2 nM in experiment [4]; 1 nM in experiment [5].
Take `C[C@H]1COc2ccc(F)cc2[C@@]23C[C@@H]2CCN3c2ccn3ncc(c3n2)C(=O)N1` [Example 24, (1^3E,1^4E,2^1R,2^5S,6S)-35-fluoro-6-methyl-4-oxa-2^2,7-diaza-1(5,3)-pyrazolo[1,5-a]pyrimidina-2(2,1)-bicyclo[3.1.0]hexana-3(1,2)-benzenacyclooctaphan-8-one]: the IC50 was 4 nM in experiment [1]; 1 nM in experiment [2]; 1 nM in experiment [3]; 1 nM in experiment [4]; 1 nM in experiment [5].
For `C[C@H]1CCc2ccc(F)cc2[C@@]23C[C@@H]2CCN3c2ccn3ncc(c3n2)C(=O)N1` [Example 31, (1^3E,1^4E,2^1R,2^5S,6S)-35-fluoro-6-methyl-2^2,7-diaza-1(5,3)-pyrazolo[1,5-a]pyrimidina-2(2,1)-bicyclo[3.1.0]hexana-3(1,2)-benzenecyclo-octaphan-8-one], the IC50 in experiment [1] worked out at 3 nM; in experiment [2], 1 nM; in experiment [3], 1 nM; in experiment [4], 1 nM; in experiment [5] it was 1 nM.
As for `C[C@@H]1CCc2ccc(F)cc2[C@@]23C[C@@H]2CCN3c2ccn3ncc(c3n2)C(=O)N1` [Example 27, (1^3E,1^4E,2^1R,2^5S,6R)-3^5-fluoro-6-methyl-2^2,7-diaza-1(5,3)-pyrazolo[1,5-a]pyrimidina-2(2,1)-bicyclo[3.1.0]hexana-3(1,2)-benzeneacyclooctaphan-8-one], the IC50 in experiment [1], in experiment [2], in experiment [3], in experiment [4] and in experiment [5] was 1 nM each time.
On to `CN1c2ccn3ncc(c3n2)C(=O)NCCCOc2ncc(F)cc2C12CC2` [Example 68, (3′E,4′E)-5′-fluoro-2′-methylspiro-[cyclopropane-1,3′-5-oxa-2,9-diaza-1(5,3)-pyrazolo[1,5-a]pyrimidina-4(3,2)-pyridina-cyclodecaphan]-10′-one], for which the IC50 was 33 nM in experiment [1], 8 nM in experiment [2], 53 nM in experiment [3] and 10 nM in experiment [4].
As to `O=C1NCCOc2ncc(F)cc2C2(CC2)Nc2ccn3ncc1c3n2` [Example 44, (3′E,4′E)-5′-fluorospiro[cyclopropane-1,3′-5-oxa-2,8-diaza-1(5,3)-pyrazolo[1,5-a]pyrimidina-4(3,2)-pyridinacyclononaphan]-9′-one], the values for the IC50 in experiment [2], in experiment [4] and in experiment [5] were 18 nM, 35 nM and 26 nM, respectively.
As to `O=C1NCCOc2ncc(F)cc2[C@@]23C[C@@H]2CCN3c2ccn3ncc1c3n2` [Example 23, (1^3E,1^4E,2^1R,2^5S)-35-fluoro-4-oxa-2^2,7-diaza-1(5,3)-pyrazolo[1,5-a]pyrimidina-3(3,2)-pyridina-2(2,1)-bicyclo[3.1.0]hexanacyclooctaphan-8-one], the IC50 in experiment [1] came out at 5 nM; in experiment [2], 1 nM; in experiment [3], 4 nM; in experiment [4], 1 nM.
As for `CN1c2ccn3ncc(c3n2)C(=O)NCCOc2ncc(F)cc2C12CC2` [Example 50, (3′E,4′E)-5′-fluoro-2′-methylspiro-[cyclopropane-1,3′-5-oxa-2,8-diaza-1(5,3)-pyrazolo[1,5-a]pyrimidina-4(3,2)-pyridina-cyclononaphan]-9′-one], the concentration for half-maximal inhibition (IC50) in experiment [1] came to 68 nM; in experiment [2] it was 11 nM; in experiment [4], 10 nM; in experiment [5], 2 nM.
Take `C[C@H]1CNC(=O)c2cnn3ccc(nc23)N2CCC3CC32c2cc(F)ccc2O1` (stereo partly drawn) [Example 3, (1^3E,1^4E,5S)-3^5-fluoro-5-methyl-4-oxa-2^2,7-diaza-1(5,3)-pyrazolo[1,5-a]pyrimidina-2(2,1)-bicyclo[3.1.0]hexana-3(1,2)-benzenacyclooctaphan-8-one]: the IC50 in experiment [4] and in experiment [5] was 1 nM in each case.

One may read the IC50 as the concentration needed to halve the response being measured.
